The results in this text go back to US20230393140A1, “BINDING ASSAYS INVOLVING A PLURALITY OF SYNTHETIC COMPOUNDS, TARGETS, AND COUNTER TARGETS” (SRI International, priority 2020, published 2023).

The target in experiment [1] is T1, IL-6 (Homo sapiens, UniProt P05231).
T1 construct: purchased Creative Biomart IL6-12H
The experiment in a line: MST binding affinity of resynthesized NNP hits to IL-6. As to conditions: read-out: KD (nM) [95% conf. int], NNP2 library hit, target IL-6, one-site binding model. The method, then: (§1) Hit binding affinity to various targets were determined using Microscale Thermophoresis (MST). MST experiments were performed on a Monolith NT.115pico (NanoTemper Technologies GmbH, Munich, Germany). Measurements were performed at room temperature, in triplicate with incubation periods of 15, 30 and 45 minutes. […] Targets were labeled using Nanotemper Monolith 2nd Generation Protein Labeling Kits. RED-MALEIMIDE (Maleimide-647-dye) labeling kit was used for K-Ras and RED-NHS (NHS-647-dye) labeling kit was used for IL-6, IL-6R, TNFα and ASGPR. The buffer for the ASGPR contained 20 mM HEPES pH 7.4, 150 mM NaCl, 10 mM MgCl2, 2 mM CaCl2, 0.05% Pluronic F-127, and 1 mM DTT; for IL-6 contained 20 mM HEPES pH 7.4, 150 mM KCl, 10 mM MgCl2, and 0.1% Pluronic F-127; for the soluble IL-6 receptor 20 mM HEPES pH 7.4, 150 mM NaCl, 10 mM MgCl2, and 0.05% Tween-20; for K-Ras 20 mM HEPES pH 7.4, 150 mM NaCl, 10 mM MgCl2, 0.05% Tween-20 and 1 mM DTT; for TNFα 10 mM HEPES pH 7.4, 150 mM NaCl, 10 mM MgCl2, 0.05% Polysorbate-20. Triplicate data was analyzed using MO.AffinityAnalysis software (NanoTemper Technologies GmbH).

The target in experiment [2] is T2, ASGPR (Homo sapiens, UniProt P07306).
T2 construct: purchased R&D Systems, Inc. 4394-AS
T2 sequence (P07306 1-291): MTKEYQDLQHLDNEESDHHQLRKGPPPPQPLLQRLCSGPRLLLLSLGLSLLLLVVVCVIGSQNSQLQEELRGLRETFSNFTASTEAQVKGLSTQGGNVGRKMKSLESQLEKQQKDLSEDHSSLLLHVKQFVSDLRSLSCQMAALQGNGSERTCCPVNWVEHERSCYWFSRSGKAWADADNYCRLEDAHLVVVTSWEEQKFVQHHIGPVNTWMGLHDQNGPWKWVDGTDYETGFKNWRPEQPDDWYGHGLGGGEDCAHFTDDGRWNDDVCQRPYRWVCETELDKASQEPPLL
The experiment in a line: MST binding affinity of resynthesized NNP hits to ASGPR. To be noted: read-out: KD (nM) [95% conf. int]; MST; NNP1 library hit; target ASGPR; one-site binding model. The protocol:
as §1

Numbered stars: 1 amine (or outer) side, 2 acyl side, 3 side chain; on linkers, the order of the positions; unused ones are H or OH. Square brackets hold non-standard residues; d marks the D form. Peptide text beside a SMILES is read from it. * marks the point of attachment. 5FAM = O=C1OC2(c3ccc(O)cc3Oc3cc(O)ccc32)c2ccc(C(=O)*)cc21; NHCH2C6H4(4-CH2CONH2) = NC(=O)Cc1ccc(CN*)cc1; X1 = O=C(Cc1ccc(CN[*:1])cc1)[*:2]

`CC(C)C[C@H](NC(=O)[C@@H](CCCNC(=N)N)NC(=O)CNC(=O)Cc1ccc(CNC(=O)[C@H](CC(C)C)NC(=O)[C@@H](CC(C)C)NC(=O)[C@@H](Cc2ccc(O)cc2)NC(=O)c2ccc3c(c2)C(=O)OC32c3ccc(O)cc3Oc3cc(O)ccc32)cc1)C(=O)NCc1ccc(CC(=O)N[C@H](CCCNC(=N)N)C(=O)N[C@H](CO)C(=O)N[C@@H](Cc2ccccc2)C(=O)NCc2ccc(CC(=O)N3CCC[C@@H]3C(=O)N[C@H](CCCNC(=N)N)C(=O)N[C@H](C(=O)NCc3ccc(CC(=O)N[C@H](Cc4c[nH]c5ccccc45)C(=O)N[C@H](CCCNC(=N)N)C(=O)N[C@H](C(=O)NCc4ccc(CC(=O)N[C@H](CC(N)=O)C(=O)N[C@H](CCCNC(=N)N)C(=O)N[C@@H](Cc5ccccc5)C(=O)NCc5ccc(CC(=O)N[C@H](CCC(=O)O)C(=O)N[C@H](Cc6ccc(O)cc6)C(=O)N[C@H](C(=O)NCc6ccc(CC(=O)N7CCC[C@@H]7C(=O)N[C@H](CCCNC(=N)N)C(=O)N[C@@H](C)C(=O)NCc7ccc(CC(=O)N[C@H](Cc8ccc(O)cc8)C(=O)N[C@H](CCCNC(=N)N)C(=O)N[C@@H](Cc8ccccc8)C(=O)NCc8ccc(CC(N)=O)cc8)cc7)cc6)C(C)C)cc5)cc4)C(C)C)cc3)C(C)C)cc2)cc1` [IL6-65-11, Fluorescein-(D)Tyr-(D)Leu-(L)Leu-PAM-Gly-(D)Arg-(L)Leu-PAM-(D)Arg-(D)Ser-(L)Phe-PAM-(D)Pro-(D)Arg-(L)Val-PAM-(D)Trp-(D)Arg-(L)Val-PAM-(D)Asn-(D)Arg-(L)Phe-PAM-(D)Glu-(D)Tyr-(L)Val- PAM-(D)Pro-(D)Arg-(L)Ala-PAM-(D)Tyr-(D)Arg-(L)Phe-PAM] (5FAM-[dY][dL]L[X1]G[dR]L[X1][dR][dS]F[X1][dP][dR]V[X1][dW][dR]V[X1][dN][dR]F[X1][dE][dY]V[X1][dP][dR]A[X1][dY][dR]F-{NHCH2C6H4(4-CH2CONH2)}): the Kd in experiment [1] was determined as 25 nM. In the case of `CC(C)C[C@H](NC(=O)[C@@H](CCCNC(=N)N)NC(=O)[C@@H](Cc1c[nH]c2ccccc12)NC(=O)Cc1ccc(CNC(=O)[C@H](Cc2ccccc2)NC(=O)[C@@H](CO)NC(=O)[C@@H](CCCNC(=N)N)NC(=O)Cc2ccc(CNC(=O)[C@@H](NC(=O)[C@@H](CO)NC(=O)[C@@H](Cc3ccc(O)cc3)NC(=O)Cc3ccc(CNC(=O)[C@H](CC(C)C)NC(=O)[C@@H](CC(C)C)NC(=O)[C@@H](Cc4ccc(O)cc4)NC(=O)c4ccc5c(c4)C(=O)OC54c5ccc(O)cc5Oc5cc(O)ccc54)cc3)C(C)C)cc2)cc1)C(=O)NCc1ccc(CC(=O)N[C@H](Cc2c[nH]c3ccccc23)C(=O)N[C@H](CCCNC(=N)N)C(=O)N[C@H](C(=O)NCc2ccc(CC(=O)N[C@H](CCCNC(=N)N)C(=O)N[C@H](Cc3ccc(O)cc3)C(=O)N[C@@H](CC(C)C)C(=O)NCc3ccc(CC(=O)N[C@H](CCC(=O)O)C(=O)N[C@H](Cc4ccc(O)cc4)C(=O)N[C@H](C(=O)NCc4ccc(CC(=O)N[C@H](CCCCN)C(=O)N[C@H](Cc5ccccc5)C(=O)N[C@@H](Cc5ccccc5)C(=O)NCc5ccc(CC(=O)N[C@H](Cc6ccc(O)cc6)C(=O)N[C@H](CCCNC(=N)N)C(=O)N[C@@H](Cc6ccccc6)C(=O)NCc6ccc(CC(N)=O)cc6)cc5)cc4)C(C)C)cc3)cc2)C(C)C)cc1` [IL6-65-1] (5FAM-[dY][dL]L[X1][dY][dS]V[X1][dR][dS]F[X1][dW][dR]L[X1][dW][dR]V[X1][dR][dY]L[X1][dE][dY]V[X1][dK][dF]F[X1][dY][dR]F-{NHCH2C6H4(4-CH2CONH2)}), the Kd in experiment [1] was 500 nM. As to `CC(C)C[C@H](NC(=O)[C@@H](CCCNC(=N)N)NC(=O)CNC(=O)Cc1ccc(CNC(=O)[C@H](Cc2ccccc2)NC(=O)[C@@H](Cc2ccccc2)NC(=O)[C@@H](CO)NC(=O)c2ccc3c(c2)C(=O)OC32c3ccc(O)cc3Oc3cc(O)ccc32)cc1)C(=O)NCc1ccc(CC(=O)N[C@H](CC(C)C)C(=O)N[C@H](CCCCN)C(=O)N[C@@H](CC(C)C)C(=O)NCc2ccc(CC(=O)N[C@H](Cc3c[nH]c4ccccc34)C(=O)N[C@H](CCCNC(=N)N)C(=O)N[C@@H](CC(C)C)C(=O)NCc3ccc(CC(=O)N[C@H](C)C(=O)N[C@H](CCCCN)C(=O)N[C@@H](Cc4ccccc4)C(=O)NCc4ccc(CC(=O)N[C@H](Cc5c[nH]cn5)C(=O)N[C@H](CCCCN)C(=O)N[C@@H](Cc5ccccc5)C(=O)NCc5ccc(CC(=O)N[C@H](C)C(=O)N[C@H](CCCNC(=N)N)C(=O)N[C@@H](CC(C)C)C(=O)NCc6ccc(CC(=O)N[C@@H](C(=O)N[C@H](Cc7c[nH]cn7)C(=O)N[C@@H](CC(C)C)C(=O)NCc7ccc(CC(=O)N[C@H](Cc8ccccc8)C(=O)N[C@H](CCCNC(=N)N)C(=O)NCC(=O)NCc8ccc(CC(N)=O)cc8)cc7)[C@H](C)O)cc6)cc5)cc4)cc3)cc2)cc1` [IL6-65-5] (5FAM-[dS][dF]F[X1]G[dR]L[X1][dL][dK]L[X1][dW][dR]L[X1][dA][dK]F[X1][dH][dK]F[X1][dA][dR]L[X1][dT][dH]L[X1][dF][dR]G-{NHCH2C6H4(4-CH2CONH2)}), the Kd in experiment [1] was determined as 33 nM.

Take `CC(C)C[C@H](NC(=O)[C@@H](Cc1c[nH]c2ccccc12)NC(=O)[C@@H](CCC(=O)O)NC(=O)[C@@H](CO)NC(=O)[C@@H](CCCNC(=N)N)NC(=O)Cc1ccc(CNC(=O)[C@H](Cc2ccccc2)NC(=O)[C@@H](Cc2c[nH]cn2)NC(=O)[C@@H](CCCNC(=N)N)NC(=O)[C@@H](CC(N)=O)NC(=O)[C@@H](Cc2ccc(O)cc2)NC(=O)Cc2ccc(CNC(=O)[C@H](CC(C)C)NC(=O)[C@@H](CCCNC(=N)N)NC(=O)[C@@H](CCCCN)NC(=O)[C@@H](CCC(=O)O)NC(=O)[C@@H](Cc3ccccc3)NC(=O)Cc3ccc(CNC(=O)[C@H](Cc4ccccc4)NC(=O)[C@@H](CO)NC(=O)[C@@H](CCC(=O)O)NC(=O)[C@H]4CCCN4C(=O)[C@@H](CC(C)C)NC(=O)c4ccc5c(c4)C(=O)OC54c5ccc(O)cc5Oc5cc(O)ccc54)cc3)cc2)cc1)C(=O)NCc1ccc(CC(=O)N[C@H](CCCNC(=N)N)C(=O)N[C@H](Cc2ccccc2)C(=O)N2CCC[C@@H]2C(=O)N[C@@H](C(=O)NCC(=O)NCc2ccc(CC(=O)N[C@H](CC(C)C)C(=O)N3CCC[C@@H]3C(=O)N[C@H](CCCNC(=N)N)C(=O)N[C@@H](C(=O)NCC(=O)NCc3ccc(CC(N)=O)cc3)[C@H](C)O)cc2)C(C)C)cc1` [ASGPR-9-11] (5FAM-[dL][dP][dE][dS]F[X1][dF][dE][dK][dR]L[X1][dY][dN][dR][dH]F[X1][dR][dS][dE][dW]L[X1][dR][dF][dP][dV]G[X1][dL][dP][dR][dT]G-{NHCH2C6H4(4-CH2CONH2)}): the Kd in experiment [2] was found to be 0.22 nM.

Turning to `CC(C)C[C@H](NC(=O)CNC(=O)[C@@H](Cc1c[nH]cn1)NC(=O)[C@@H](CCCNC(=N)N)NC(=O)[C@H]1CCCN1C(=O)Cc1ccc(CNC(=O)[C@H](Cc2ccccc2)NC(=O)[C@@H](CO)NC(=O)[C@@H](CCCNC(=N)N)NC(=O)[C@H]2CCCN2C(=O)CNC(=O)Cc2ccc(CNC(=O)[C@H](C)NC(=O)[C@@H](CCCNC(=N)N)NC(=O)[C@H]3CCCN3C(=O)[C@H](NC(=O)CNC(=O)Cc3ccc(CNC(=O)[C@H](Cc4ccccc4)NC(=O)[C@@H](CO)NC(=O)[C@@H](CCC(=O)O)NC(=O)[C@H]4CCCN4C(=O)[C@@H](CC(C)C)NC(=O)c4ccc5c(c4)C(=O)OC54c5ccc(O)cc5Oc5cc(O)ccc54)cc3)C(C)C)cc2)cc1)C(=O)NCc1ccc(CC(=O)N[C@H](CCCNC(=N)N)C(=O)N[C@H](Cc2ccccc2)C(=O)N2CCC[C@@H]2C(=O)N[C@@H](C(=O)NCC(=O)NCc2ccc(CC(=O)N[C@H](CC(C)C)C(=O)N3CCC[C@@H]3C(=O)N[C@H](CCCNC(=N)N)C(=O)N[C@@H](C(=O)NCC(=O)NCc3ccc(CC(N)=O)cc3)[C@H](C)O)cc2)C(C)C)cc1` [ASGPR-9-14] (5FAM-[dL][dP][dE][dS]F[X1]G[dV][dP][dR]A[X1]G[dP][dR][dS]F[X1][dP][dR][dH]GL[X1][dR][dF][dP][dV]G[X1][dL][dP][dR][dT]G-{NHCH2C6H4(4-CH2CONH2)}), the Kd in experiment [2] was determined as 20 nM.

A word on the Kd: it is a measure of binding affinity in units of concentration.
